Test results from US20250243219A1, “MACROCYCLIC COMPOUNDS AND USES THEREOF” (Cypralis Limited, priority 2022, published 2025).

What was measured:
SH-SY5Y cells = experiment: Thapsigargin treated cell death assay in SH-SY5Y cells; format: cell-based, human; conditions: compound at 10 μM; positive = protection from cell death, negative = compound toxicity
In short: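 SH-SY5Y neuroblastoma cells given compound (typically 1, 3 and 10 μM, triplicate) 30 min before thapsigargin, with cyclosporin A (3 and 10 μM) as positive control. Cell death read kinetically over 24 h by CellTox Green DNA-binding fluorescence; values are % recovery at 10 μM, usually at 8 h, positive meaning protection.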

EAE C57BL/6J mice = experiment: Experimental autoimmune encephalomyelitis (EAE) mouse model of multiple sclerosis; format: in vivo; conditions: 75 mg/kg orally BID for 14 days
Experimental: C57BL/6 mice are the most commonly used strain. For the induction of EAE, typically, the immunogenic epitope MOG35-55 of myelin oligodendrocyte glycoprotein is suspended in complete Freund's adjuvant (CFA) prior to immunization. Thereafter, pertussis toxin (PT) is applied on the day of immunization and a couple of days later to facilitate the induction of EAE. Animals are assessed by body weight change, EAE scoring and histopathological examination for both inflammation and demyelination.
Compound (2) was dissolved at a dose level of 75 mg/kg with a final concentration of 20 mg/ml (in 66.6% PEG/water), and administered orally BID (i.e. every 12 hours) to C57BL/6J mice at a dose volume of 3.75 ml/kg. Treatment was started concomitant with the first signs of disease (around days 10-12) and continued for 14 days. The animals were evaluated for general clinical signs, body weight change and neurological score. After termination of treatment the animals were sacrificed, brains and spinal cords were collected, fixed in formalin 4% and processed for staining with haematoxylin and eosin.

[1] = system: animal models of acute pancreatitis; conditions: Mukherjee et al., Gut Online, 12 Jun. 2015; cited from earlier work
[2] = vs vehicle group, not statistically significant

CC(C)[C@@H]1OC(=O)C(C)(C)/C=C/c2ccc3ccc(nc3c2)N(C)NC(=O)[C@@H]2CCCN(N2)C(=O)[C@H](C)NC1=O [Compound (2)]
SYSY [10 μM] % recovery (SH-SY5Y cells): 40.4% | Extent of spinal cord damage (EAE C57BL/6J mice; vs untreated control, FIG. 4): significant reduction | Body weight gain (EAE C57BL/6J mice; [2]): better body weight gain | Clinical score (EAE C57BL/6J mice; [2]): reduction in the clinical score | Protection in animal models of acute pancreatitis [1]: protective
